{"source": "patent US20220226313A1", "about": "“COMBINATION THERAPIES THAT INCLUDE AN AGENT THAT PROMOTES GLUCOSE OXIDATION AND AN INHIBITOR OF PYRUVATE DEHYDROGENASE KINASE” (IMBRIA PHARMACEUTICALS, INC., priority 2019, published 2022)", "key": {"[1]": {"test": "stability of CV-8972 in aqueous solution at different concentrations and pH", "format": "physicochemical", "description": "The stability of CV-8972 was analyzed. Aqueous samples containing CV-8972 at different concentrations and pH were incubated for various periods and analyzed.\nForm A of CV-8972 was analyzed for stability in aqueous solution. Aqueous samples containing CV-8972 at different concentrations and pH were incubated for various periods and analyzed."}, "[2]": {"test": "recrystallization to monohydrate of CV-8972, water content by KF", "format": "physicochemical", "settings": "recrystallized monohydrate of CV-8972, MeOH:MEK with water; theoretical 3.32%", "from_the_text": "The product was converted to the desired polymorph by recrystallization. The percentage of water and the ratio of methanol:methyl ethyl ketone (MEK) were varied in different batches using 2.5 g of product.\nIn batch MBA 25, 5% water w/r/t total volume of solvent (23 volumes) containing 30% methano1:70% MEK was used for precipitation. The yield was 67% of monohydrate of CV-8972.\nIn batch MBA 26, 1.33% water w/r/t total volume of solvent (30 volumes) containing 20% methano1:80% MEK was used for precipitation. […] Water content was determined by KF to be 4.0%.\nIn batch MBA 27, 3% water w/r/t total volume of solvent (32 volumes) containing 22% methano1:78% MEK was used for precipitation. The yield was 87.22% of monohydrate of CV-8972.\nIn other batches, the ratio and total volume of solvent were held constant at 20% methano1:80% MEK and 30 volumes in batches using 2.5 g of product, and only the percentage of water was varied.\nIn batch MBA 29, 1.0 equivalent of water was added. Material was isolated and dried under vacuum at 40° C. for 24 hours. Water content was determined by KF to be 0.89%, showing that the monohydrate form was not forming stoichiometrically.\nIn batch MBA 30, 3% water was added. Material was isolated and dried under vacuum at 40° C. for 24 hours.\nIn batch MBA 31, 5% water was added. Material was isolated and dried under vacuum at 40° C. for 24 hours. Water content was determined by KF to be 3.30%, showing that monohydrate is forming with addition of excess water."}, "[3]": {"system": "isolated hearts after ischemia-reperfusion", "test": "ischemia-reperfusion (IR), coronary flow", "format": "in vivo, mice", "settings": "ratio of flow at 170 minutes to flow at 20 minutes", "description": "FIG. 38 is a schematic of the ischemia-reperfusion (IR) method used to analyze the effects of selected compositions on coronary flow, cardiac function, and infarct size. […] At 20 minutes, ischemia was induced, and coronary flow was analyzed. At 50 minutes, reperfusion was initiated to restore blood flow. At 170 minutes, coronary flow and cardiac function was analyzed, and then the hearts were preserved, sectioned, and infarct size was measured by triphenyltetrazolium chloride (TTC) staining. FIG. 39 is a graph of coronary flow of after IR."}, "[4]": {"system": "isolated hearts after ischemia-reperfusion", "test": "ischemia-reperfusion (IR), cardiac function (LVDP)", "format": "in vivo, mice", "settings": "group mean", "protocol": "At 20 minutes, ischemia was induced, and coronary flow was analyzed. At 50 minutes, reperfusion was initiated to restore blood flow. At 170 minutes, coronary flow and cardiac function was analyzed, and then the hearts were preserved, sectioned, and infarct size was measured by triphenyltetrazolium chloride (TTC) staining. […] Blue bars indicate LVDP at 20 minutes, and orange bars indicate LVDP at 170 minutes."}, "[5]": {"system": "isolated hearts after ischemia-reperfusion", "test": "ischemia-reperfusion (IR), infarct size by TTC staining", "format": "in vivo, mice", "settings": "composite image data, mean of the group's hearts", "description": "FIG. 38 is a schematic of the ischemia-reperfusion (IR) method used to analyze the effects of selected compositions on coronary flow, cardiac function, and infarct size. […] At 20 minutes, ischemia was induced, and coronary flow was analyzed. At 50 minutes, reperfusion was initiated to restore blood flow. At 170 minutes, coronary flow and cardiac function was analyzed, and then the hearts were preserved, sectioned, and infarct size was measured by triphenyltetrazolium chloride (TTC) staining. […] FIG. 42 is graph of infarct size after IR."}}, "note": "Where “and” joins values, the source holds several entries; their conditions need not be identical. Identical values can stand only once.", "data": [{"smiles": "COc1ccc(CN2CCN(CCOC(=O)c3cccnc3)CC2)c(OC)c1OC.Cl.Cl.Cl.O", "note": "[Sample 276-MBA-172]", "values": [{"measurement": "Retention Time 5.6 (purity of CV-8972)", "setting": "[1]; 2 mg/mL pH 6, 0 hrs", "result": 98.01}, {"measurement": "Retention Time 5.6 (purity of CV-8972)", "setting": "[1]; 2 mg/mL pH 7, 0 hrs", "result": 97.53}, {"measurement": "Retention Time 5.6 (purity of CV-8972)", "setting": "[1]; 10 mg/mL pH 6, 0 hrs", "result": 95.24}, {"measurement": "Retention Time 5.6 (purity of CV-8972)", "setting": "[1]; 10 mg/mL pH 7, 0 hrs", "result": 92.85}]}, {"smiles": "COc1ccc(CN2CCN(CCOC(=O)c3cccnc3)CC2)c(OC)c1OC.Cl.Cl.Cl.O", "note": "[Sample 289-MBA-25]", "values": [{"measurement": "KF result (% of water)", "setting": "[2]", "result": 3.46, "unit": "%"}]}, {"smiles": "COc1ccc(CN2CCN(CCOC(=O)c3cccnc3)CC2)c(OC)c1OC.Cl.Cl.Cl.O", "note": "[Sample 289-MBA-26]", "values": [{"measurement": "KF result (% of water)", "setting": "[2]", "result": 4.00, "unit": "%"}, {"measurement": "KF result (Sample after drying at 40° C. for 24 hours)", "setting": "[2]", "result": 3.75, "unit": "%"}]}, {"smiles": "COc1ccc(CN2CCN(CCOC(=O)c3cccnc3)CC2)c(OC)c1OC.Cl.Cl.Cl.O", "note": "[Sample 289-MBA-27]", "values": [{"measurement": "KF result (% of water)", "setting": "[2]", "result": 3.93, "unit": "%"}, {"measurement": "KF result (Sample after drying at 40° C. for 24 hours)", "setting": "[2]", "result": 3.54, "unit": "%"}]}, {"smiles": "COc1ccc(CN2CCN(CCOC(=O)c3cccnc3)CC2)c(OC)c1OC.Cl.Cl.Cl.O", "note": "[Sample 289-MBA-29]", "values": [{"measurement": "KF result (Sample after drying at 40° C. for 24 hours)", "setting": "[2]", "result": 0.89, "unit": "%"}]}, {"smiles": "COc1ccc(CN2CCN(CCOC(=O)c3cccnc3)CC2)c(OC)c1OC.Cl.Cl.Cl.O", "note": "[Sample 289-MBA-30]", "values": [{"measurement": "KF result (Sample after drying at 40° C. for 24 hours)", "setting": "[2]", "result": 3.51, "unit": "%"}]}, {"smiles": "COc1ccc(CN2CCN(CCOC(=O)c3cccnc3)CC2)c(OC)c1OC.Cl.Cl.Cl.O", "note": "[Sample 289-MBA-31]", "values": [{"measurement": "KF result (Sample after drying at 40° C. for 24 hours)", "setting": "[2]", "result": 3.30, "unit": "%"}]}, {"smiles": "COc1ccc(CN2CCNCC2)c(OC)c1OC", "note": "[TMZ, trimetazidine]", "values": [{"measurement": "CF170/CF20", "setting": "[3]; group MEAN", "result": "4.02E+01", "unit": "ul/ml"}, {"measurement": "CF170/CF20", "setting": "[3]; individual heart", "result": "2.42E+01 ul/ml and 5.87E+01 ul/ml and 3.57E+01 ul/ml and 3.37E+01 ul/ml and 5.21E+01 ul/ml and 2.73E+01 ul/ml and 2.60E+01 ul/ml and 6.39E+01 ul/ml"}, {"measurement": "left ventricular developed pressure (LVDP), T20 Mean", "setting": "[4]; Table 6, at 20 minutes", "result": 55.86}, {"measurement": "left ventricular developed pressure (LVDP), T170 Mean", "setting": "[4]; Table 6, at 170 minutes", "result": 48.91}, {"measurement": "IS/LV, Mean", "setting": "[5]", "result": 56, "unit": "%"}]}]}
